Like-named read-outs stand apart in the source and are kept apart here. Bounds are passed on as bounds.

The target of assay [1] is T1, human TET2 (Homo sapiens, UniProt Q6N021). Particulars: for inhibition of TET2: additional experiments, data not shown, assay format not stated; for IC50 / inhibition of TET2 activity (in words): MALDI assay; for IC50: resynthesized/synthesized compounds, highest concentration 200 µM; for inhibition of TET2 activity (in words): synthesized compounds.
Another assay deals with TET1. The arrangement: method as in PMID 35586434. Particulars: cited from earlier work.
The subject of a further assay is TET2. The arrangement: method as in PMID 35586434. To be noted: cited from earlier work.
For assay [2], the target named is T1, human TET2. Particulars: FRET assay dose response; three independent experiments with technical duplicates.
Protocol: Use of a DNA duplex terminally labelled with a FRET donor/acceptor dye pair (Cy3/Cy5) thereby enables measuring the amount of caC product generated from an mC duplex by TET (Fig. 1A). […] We identified an universal buffer system (50 mM potassium acetate, 20 mM Tris-acetate, 10 mM magnesium acetate, 100 μg ml^−1 BSA, pH 7.9) that was compatible with the activity of both TET2 and MspI, and thus was applicable to one pot reactions without intermediate purification steps. We incubated 0.5 μM of the DNA duplex with TET2 at different concentrations under aerobic conditions and in the presence of essential assay components, i.e. α-KG, ascorbate, dithiothreitol (DTT), and Fe(II) at 37 °C and pH 8 for 1 hour. We then added 20 U MspI enzyme to determine the caC level generated by TET2-mediated oxidation.
For screening, we premixed the annealed oligonucleotides with TET2 and all other essential components except Fe(II) in 1536-well plates, followed by the acoustic transfer of test compounds into each well at a final concentration of 50 μM. […] In order to distinguish the false-positive hits, we normalized the final Cy5 fluorescence of each well to its respective initial value immediately after MspI addition. […]
fluorescence signals were recorded on an Infinite® M1000 (Tecan). […]

For `O=C(O)c1ccnc(Br)c1` [2-bromoisonicotinic acid, reference compound], the “inhibition of TET2” value on human TET2 [1] was “no inhibition”.

Consider `Nc1nc(=O)n(-c2cccc(-c3ccccc3)c2)cc1Cl` [Bobcat339], for which the “inhibition of TET1” value in the assay on TET1 is listed as “not be an inhibitor”. For the same compound, the “inhibition of TET2” value in the assay with TET2 is “not be an inhibitor”.

A word on the IC50: it is the point on the concentration scale where inhibition reaches its midpoint. Low values mean inhibition by little substance, high ones a need for much substance. For the compound `CC(=O)N(O)CCCCCNC(=O)CCC(=O)N(O)CCCCCNC(=O)CCC(=O)N(O)CCCCCN` [DFOA, deferoxamine], the IC50 on human TET2 [2] worked out at 46 µM.

Consider `CC(C)OS(=O)(=O)c1ccc(F)c2ncc(I)cc12` [compound 5], for which the IC50 against human TET2 [1] was more than 200 µM.

Regarding `CCCCCOS(=O)(=O)c1ccc(F)c2ncc(I)cc12` [compound 6], on human TET2 [1], the IC50 is more than 200 µM.

In turn, `NS(=O)(=O)c1ccc(F)c2ncc(I)cc12` [compound 8] displayed an IC50 at human TET2 [1] of 86.6 ± 5.6 µM.

Turning to `CNS(=O)(=O)c1ccc(F)c2ncc(I)cc12` [compound 9], at human TET2 [1], the “inhibition of TET2 activity (in words)” value is “inactive” and the IC50 is more than 200 µM.

For `O=S(=O)(c1ccc(F)c2ncc(I)cc12)N1CCCC1` [compound 10], at human TET2 [1], the “inhibition of TET2 activity (in words)” value was “inactive” and the IC50 was more than 200 µM.

For `O=S(=O)(Nc1ccccc1)c1ccc(F)c2ncc(I)cc12` [compound 11], on human TET2 [1], the midpoint of inhibition, the IC50, lay at 23.9 ± 4.1 µM.

`O=S(=O)(NCc1ccccc1)c1ccc(F)c2ncc(I)cc12` [compound 13]: on human TET2 [1], the IC50 is more than 200 µM.

For `O=S(=O)(NCCc1ccccc1)c1ccc(F)c2ncc(I)cc12` [compound 14], on human TET2 [1], the IC50 is more than 200 µM.

In turn, `O=S(=O)(Nc1cccc(O)c1)c1ccc(F)c2ncc(I)cc12` [compound 16] had an IC50 at human TET2 [1] of more than 200 µM.

As to `Nc1ccccc1S(=O)(=O)O` [o-anilinesulfonic acid, reference compound], at human TET2 [1], the “inhibition of TET2” value is on record as “no inhibition”.

Take `Cc1ccc(S(=O)(=O)O)cc1` [p-toluenesulfonic acid, reference compound]: the “inhibition of TET2” value against human TET2 [1] was “no inhibition”.
